Patent US12495798B2, “Nicotinamide compound and herbicidal composition comprising compound” (KOREA RESEARCH INSTITUTE OF CHEMICAL TECHNOLOGY, priority 2019, dated 2025)

Assays:
Format in all cases: in vivo
[1] = test system: indian jointvetch; assay: Herbicidal activity test against upland field weeds (soil treatment test); design: key to Soil treatment herbicidal activity, Indian jointvetch: 0 (no control); 100 (complete control); conditions: 50 g ai/ha, scale 0 (no control) to 100 (complete control)
Protocol: (§1) Experimental Example 2: Herbicidal Activity Test Against Upland Field Weeds (Soil Treatment Test) Soil treatment was performed as follows: After filling a square plastic pot having a surface area of 350 cm^2 with sandy loam mixed with 1 g per pot (350 cm^2) of horticultural mixed fertilizer (N:P:K=11:10:11), seeds (10˜15 grains) or rootstocks (2 pieces) of 5 kinds of grassy weeds of sorghum, barnyard grass, quack grass, crabgrass, fall panicum, and 5 kinds of broadleaf weeds of black nightshade, indian jointvetch, velvetleaf, cocklebur, bindweed, which had been stored in a low temperature (6° C.), were sown. The day after sowing, test compound solutions were made by diluting with a preparation solution (including 50% acetone, 0.1% Tween-20) so that the final treatment amount of the test compounds was 50 or 75 g a.i./ha. The prepared test compound solution was used for treating soil surface by hand-spraying 14 mL per pot in a fume hood. After the treatment, it was managed under the same greenhouse conditions (average temperature 30±5° C., light/dark=14/10 hours), and after 14 days (after 21 days if necessary), the external symptoms and efficacy were investigated according to the scale of 0 (no control) to 100 (complete control). The results of Table 8 were obtained by evaluating weed control value to the untreated control by conducting visual assessment.

[2] = test system: crabgrass; assay: as above; design: key to Soil treatment herbicidal activity, Crabgrass: 0 (no control); 100 (complete control); conditions: 50 g ai/ha, scale 0 (no control) to 100 (complete control)
Protocol: as §1

[3] = test system: barnyard grass; assay: Herbicidal activity test against upland field weeds (foliar treatment test); conditions: Echinochloa crus-galli, 50 g ai/ha, scale 0-100
Outline: (§2)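 Visual 0–100 control ratings relative to untreated plants, taken 14 (or 21) days after spraying foliage at 50 or 75 g a.i./ha. Spray solution: 50% acetone with 0.1% Tween-20; plants kept in greenhouse at 30±5 °C, 14 h light/10 h dark.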

[4] = test system: cocklebur; assay: Herbicidal activity test against upland field weeds (soil treatment test); design: key to Soil treatment herbicidal activity, Cocklebur: 0 (no control); 100 (complete control); conditions: 50 g ai/ha, scale 0 (no control) to 100 (complete control)
Protocol: as §1

[5] = test system: quack grass; assay: Herbicidal activity test against upland field weeds (foliar treatment test); design: key to Foliar treatment herbicidal activity, quack grass: 0 (no control); 100 (complete control); conditions: 50 g ai/ha, scale 0-100
Outline: as §2

[6] = test system: quack grass; assay: Herbicidal activity test against upland field weeds (soil treatment test); design: key to Soil treatment herbicidal activity, quack grass: 0 (no control); 100 (complete control); conditions: 50 g ai/ha, scale 0 (no control) to 100 (complete control)
Protocol: as §1

[7] = test system: velvetleaf; assay: Herbicidal activity test against upland field weeds (foliar treatment test); design: key to Foliar treatment herbicidal activity, velvet leaf: 0 (no control); 100 (complete control); conditions: 50 g ai/ha; for pest or weed control at 50 g/ha: Abutilon theophrasti, scale 0-100, read-out: Foliar treatment herbicidal activity, velvet leaf
Outline: as §2

[8] = test system: sorghum; assay: as above; conditions: Sorghum, 50 g ai/ha, scale 0-100
Outline: as §2

[9] = test system: fall panicum; assay: as above; conditions: Panicum dichotomiflorum, 50 g ai/ha, scale 0-100
Outline: as §2

[10] = test system: black nightshade; assay: Herbicidal activity test against upland field weeds (soil treatment test); design: key to Soil treatment herbicidal activity, black nightshade: 0 (no control); 100 (complete control); conditions: 50 g ai/ha, scale 0 (no control) to 100 (complete control); for pest or weed control at 50 g/ha: Solanum nigrum
Protocol: as §1

[11] = test system: black nightshade; assay: Herbicidal activity test against upland field weeds (foliar treatment test); conditions: Solanum nigrum, 50 g ai/ha, scale 0-100
Outline: as §2

[12] = test system: velvetleaf; assay: Herbicidal activity test against upland field weeds (soil treatment test); design: key to Soil treatment herbicidal activity, velvet leaf: 0 (no control); 100 (complete control); conditions: 50 g ai/ha, scale 0 (no control) to 100 (complete control)
Protocol: as §1

[13] = test system: cocklebur; assay: Herbicidal activity test against upland field weeds (foliar treatment test); design: key to Foliar treatment herbicidal activity, Cocklebur: 0 (no control); 100 (complete control); conditions: 50 g ai/ha, scale 0-100; for pest or weed control at 50 g/ha: Xanthium strumarium
Outline: as §2

[14] = test system: sorghum; assay: Herbicidal activity test against upland field weeds (soil treatment test); design: key to Soil treatment herbicidal activity, Sorghum: 0 (no control); 100 (complete control); conditions: 50 g ai/ha, scale 0 (no control) to 100 (complete control); for plant injury at 50 g/ha: Sorghum
Protocol: as §1

[15] = test system: indian jointvetch; assay: Herbicidal activity test against upland field weeds (foliar treatment test); conditions: 50 g ai/ha, scale 0-100
Outline: as §2

[16] = test system: barnyard grass; assay: Herbicidal activity test against upland field weeds (soil treatment test); design: key to Soil treatment herbicidal activity, barnyard grass: 0 (no control); 100 (complete control); conditions: 50 g ai/ha, scale 0 (no control) to 100 (complete control)
Protocol: as §1

[17] = test system: bindweed; assay: Herbicidal activity test against upland field weeds (foliar treatment test); conditions: 50 g ai/ha, scale 0-100
Outline: as §2

[18] = test system: fall panicum; assay: Herbicidal activity test against upland field weeds (soil treatment test); design: key to Soil treatment herbicidal activity, Fall panicum: 0 (no control); 100 (complete control); conditions: 50 g ai/ha, scale 0 (no control) to 100 (complete control); for pest or weed control at 50 g/ha: Panicum dichotomiflorum
Protocol: as §1

[19] = test system: crabgrass; assay: Herbicidal activity test against upland field weeds (foliar treatment test); conditions: Digitaria sanguinalis, 50 g ai/ha, scale 0-100
Outline: as §2

[20] = test system: bindweed; assay: Herbicidal activity test against upland field weeds (soil treatment test); conditions: 50 g ai/ha, scale 0 (no control) to 100 (complete control)
Protocol: as §1

Structure (SMILES) | Soil treatment herbicidal activity, Indian jointvetch [1] | Soil treatment herbicidal activity, Crabgrass [2] | pest or weed control at 50 g/ha [3] [%] | Soil treatment herbicidal activity, Cocklebur [4] | Foliar treatment herbicidal activity, quack grass [5] | Soil treatment herbicidal activity, quack grass [6] | pest or weed control at 50 g/ha [7] [%] | plant injury at 50 g/ha [8] [%] | pest or weed control at 50 g/ha [9] [%] | Soil treatment herbicidal activity, black nightshade [10] | pest or weed control at 50 g/ha [11] [%] | Soil treatment herbicidal activity, velvet leaf [12] | pest or weed control at 50 g/ha [13] [%] | Soil treatment herbicidal activity, Sorghum [14] | pest or weed control at 50 g/ha [15] [%] | pest or weed control at 50 g/ha [17] [%] | pest or weed control at 50 g/ha [18] [%] | pest or weed control at 50 g/ha [19] [%] | plant injury at 50 g/ha [14] [%] | Soil treatment herbicidal activity, barnyard grass [16] | further results
CON(Cc1nnn(C)n1)Cc1nc(C(F)F)ccc1C(=O)Nc1nnnn1C [Compound No. 2-86, 6-(difluoromethyl)-2-((methoxy((2-methyl-2H-tetrazol-5-yl)methyl)amino)methyl)-N-(1-methyl-1H-tetrazol-5-yl)nicotinamide] | 100 | 0 | 95 | 0 | 0 | 0 | 98 | 30 | 50 | 100 | 95 | 100 | 80 | 0 | 80 | 40 | 20 | 70 |  |  | pest or weed control at 50 g/ha ([16]; Echinochloa crus-galli): 98%
CC(=O)N(C(=O)c1ccc(C(F)(F)F)nc1COCc1nnn(C)n1)c1nnnn1C [Compound No. 2-67, N-acetyl-N-(1-methyl-1H-tetrazol-5-yl)-2-(((2-methyl-2H-tetrazol-5-yl)methoxy)methyl)-6-(trifluoromethyl)nicotinamide] | 100 | 100 | 70 | 100 | 0 | 0 | 80 | 40 | 60 |  | 95 | 100 | 95 |  | 80 | 40 | 90 | 70 | 50 | 100 | pest or weed control at 50 g/ha [20]: 70%
Cn1cnc(COCc2nc(C(F)(F)Cl)ccc2C(=O)Nc2nnnn2C)n1 [Compound No. 2-80, 6-(chlorodifluoromethyl)-2-(((1-methyl-1H-1,2,4-triazol-3-yl)methoxy)methyl)-N-(1-methyl-1H-tetrazol-5-yl)nicotinamide] |  | 0 | 80 | 0 | 0 | 0 | 98 | 20 | 60 |  | 98 |  | 40 | 0 | 70 | 40 |  | 40 |  | 0 | pest or weed control at 50 g/ha [1]: 40%; pest or weed control at 50 g/ha [10]: 98%; pest or weed control at 50 g/ha ([12]; Abutilon theophrasti, read-out: Soil treatment herbicidal activity, velvet leaf): 98%; Soil treatment herbicidal activity, Fall panicum [18]: 0
CON(Cc1nnn(C)n1)Cc1nc(C(F)(F)Cl)ccc1C(=O)Nc1nnnn1C [Compound No. 2-79, 6-(chlorodifluoromethyl)-2-((methoxy((2-methyl-2H-tetrazol-5-yl)methyl)amino)methyl)-N-(1-methyl-1H-tetrazol-5-yl)nicotinamide] | 100 |  | 80 | 0 | 0 | 0 | 80 | 20 | 50 | 100 | 98 | 100 | 60 |  | 70 | 40 | 98 | 70 | 30 | 100 | pest or weed control at 50 g/ha ([2]; Digitaria sanguinalis): 95%
CON(Cc1nc(C(F)(F)F)ccc1C(=O)Nc1nnnn1C)Cc1ncnn1C [Compound No. 1-91, 2-((methoxy((1-methyl-1H-1,2,4-triazol-5-yl)methyl)amino)methyl)-N-(1-methyl-1H-tetrazol-5-yl)-6-(trifluoromethyl)nicotinamide] |  | 0 | 98 | 0 | 0 | 0 |  | 50 | 90 |  | 98 | 100 |  | 0 | 90 | 80 |  | 98 |  | 0 | pest or weed control at 50 g/ha [1]: 98%; Foliar treatment herbicidal activity, velvet leaf ([7]; scale 0-100): 100; pest or weed control at 50 g/ha [10]: 98%; Foliar treatment herbicidal activity, Cocklebur [13]: 100; Soil treatment herbicidal activity, Fall panicum [18]: 0
